The values that follow come from patent US20200030463A1, “USE RADIUM RA-223 […] THE TREATMENT OF MULTIPLE MYELOMA” (Bayer Aktiengesellschaft, priority 2017, published 2020).

The subject of series [1] is OPM-2 human multiple myeloma cells. The series can be described thus: Proliferation assay, OPM-2. It counts as cell-based. The following applies: OPM-2 cells. Here is the method: (§1) Proliferation assays were performed with human plasma cell leukemia (JJN-3, L-363), human multiple myeloma (LP-1, MOLP-8, RPMI-8226 and OPM-2) and mouse MM 5TGM1 cells. The corresponding in vivo effects were studied in a syngeneic 5TGM1 mouse MM model. Female C57BL/KaLwRij mice (6-9 weeks old, n=15/group) were inoculated with 5TGM1 cells via tail vein and 26 days later, radium-223 (300 kBq/kg, single iv injection) and/or bortezomib (1 mg/kg ip, twice a week) or vehicle control were administered. The development of the osteolytic lesions was detected by radiography. The hind limbs were used for histological analyses and total activity measurement performed by a gamma-counter. Osteoclast number at tumor-bone interface was measured using TRAP staining.

In series [2] the test system is JJN-3, L-363, LP-1, MOLP-8, RPMI-8226, OPM-2 and 5TGM1 cells. Put plainly: Proliferation assays, all cancer cell lines tested. It counts as cell-based, human and mouse. On the procedure:
as §1

Series [3] relates to syngeneic 5TGM1 mouse MM model. The series can be described thus: Syngeneic 5TGM1 mouse MM model. The note with it: p<0.05 bortezomib; for osteolytic lesion area: radiography, radium-223 300 kBq/kg single iv and/or bortezomib 1 mg/kg ip twice a week, p=0.01 radium-223, p<0.001 combination. Format: in vivo. On the procedure: as §1
Series [4] relates to JJN-3 human plasma cell leukemia cells. Put plainly: Proliferation assay, JJN-3. The following applies: JJN3 cells. Format: cell-based. Here is the method:
as §1

The subject of series [5] is patients with bone metastases. The note with it: cited from earlier work.
For series [6], the system named is MOLP-8 human multiple myeloma cells. The series can be described thus: Proliferation assay, MOLP-8. It counts as cell-based. The following applies: MOLP-8 cells. Here is the method:
as §1, with “staining. Bortezomib inhibited proliferation of all cancer cell lines tested at 25 nM (JJN3 and OPM-2 at 2.5 nM) and radium-223 at 800 Bq/ml (L-363 and MOLP-8 at 200 Bq/ml). […] In 5TGM1 MM model, both bortezomib and radium-223 decreased osteolytic lesion area as monotherapy (p<0.05 and p=0.01, respectively). […] All treatments were well tolerated.” for “staining.”

Series [7] deals with L-363 human plasma cell leukemia cells. Put plainly: Proliferation assay, L-363. The note with it: L-363 cells. Format: cell-based. On the procedure:
as §1, with “staining. Bortezomib inhibited proliferation of all cancer cell lines tested at 25 nM (JJN3 and OPM-2 at 2.5 nM) and radium-223 at 800 Bq/ml (L-363 and MOLP-8 at 200 Bq/ml). […] In 5TGM1 MM model, both bortezomib and radium-223 decreased osteolytic lesion area as monotherapy (p<0.05 and p=0.01, respectively). […] All treatments were well tolerated.” for “staining.”

For series [8] the following is noted: single dose 250 kBq per kg body weight; cited from earlier work.
The test system of series [9] is patients with CRPC and bone metastases. The note with it: cited from earlier work.
[10] abbreviates: phase 2 studies, CRPC and bone metastases.

As for `CC(C)C[C@H](NC(=O)[C@H](Cc1ccccc1)NC(=O)c1cnccn1)B(O)O` [bortezomib], the figures for the “concentration at which proliferation was inhibited” value in series [1], in series [2] and in [4] were 2.5 nM, 25 nM and 2.5 nM, respectively. In addition, the “number of osteoclasts at tumor-bone interface” value in [3] (TRAP staining, p<0.01 combination) was “decreased”. Further, the osteolytic lesion area entry in series [3] is listed as “decreased”.
For `[Cl][223Ra][Cl]` [radium-223, radium-223 dichloride], the safety profile entry in series [5] (phase 1 and 2 studies) is given as “favorable safety profile with minimal myelotoxicity”. Also, the “disease-related biomarkers (bone ALP, PSA)” value in series [5] (setting [10]) is recorded as “improves”. Further, the pain result in series [5] (setting [10]) was “reduces pain”. Besides, the results for the “activity concentration at which proliferation was inhibited” value in [6], in [7] and in [2] were 200 Bq/ml, 200 Bq/ml and 800 Bq/ml, respectively. Moreover, the “cases of grade 3 neutropenia” value in series [8] is recorded as 1/5. The observed adverse reactions entry in series [8] is “diarrhea and reversible myelosuppression”. In addition, the osteolytic lesion area entry in series [3] was “decreased”. In addition, the “median survival longer than placebo” value in series [9] (CRPC with bone metastases) is recorded as 2.8 months. Moreover, in series [9] (Phase III clinical trials), the median overall survival entry is recorded as “Significant increase”. In series [9] (overall survival, CRPC with bone metastases), the “reduction in risk of death compared with placebo” value was 30.5%. Moreover, the “time to first skeletal-related event” value in [9] (vs placebo) was “significantly prolonged”.
